Test results taken from ChEMBL document CHEMBL4028884, “Discovery, Development, and Cellular Delivery of Potent and Selective Bicyclic Peptide Inhibitors of Grb7 Cancer Target” (J Med Chem, 2017).
The source made the active and inactive calls. No cut-off for these calls is given here. Where a SMILES comes first, the peptide text is derived from it. Bridges are numbered along the chain shown (N, C = ends). [ ]: non-standard residue; d: D form. Phe(4-COOH) = N[C@@H](Cc1ccc(C(=O)O)cc1)C(=O)O

Experiments:
[1] = target: Growth factor receptor-bound protein 7 (Homo sapiens) (UniProt Q14451); assay: Inhibition of GRB7-HER2 interaction in human SKBR3 cells assessed as HER2 detection in cell lysates at 20 uM preincubated for 1 hr followed by fibronectin stimulation measured after 10 mins by Western blot analysis; type: cell-based
[2] = target: Growth factor receptor-bound protein 7 (Homo sapiens) (UniProt Q14451); assay: Inhibition of GRB7-SHC interaction in human SKBR3 whole cells at 20 uM preincubated for 1 hr followed by fibronectin stimulation measured after 10 mins by Western blot analysis; type: cell-based
[3] = target: Growth factor receptor-bound protein 7 (Homo sapiens) (UniProt Q14451); assay: Inhibition of GRB7-SHC interaction in human SKBR3 cells assessed as SHC detection in cell lysates at 20 uM preincubated for 1 hr followed by fibronectin stimulation measured after 10 mins by Western blot analysis; type: cell-based
[4] = target: Growth factor receptor-bound protein 7 (Homo sapiens) (UniProt Q14451); assay: Inhibition of GRB7-FAK interaction in human SKBR3 cells assessed as FAK detection in cell lysates at 20 uM preincubated for 1 hr followed by fibronectin stimulation measured after 10 mins by Western blot analysis; type: cell-based
[5] = target: Growth factor receptor-bound protein 7 (Homo sapiens) (UniProt Q14451); assay: Inhibition of GRB7-HER2 interaction in human SKBR3 cells assessed as HER2 detection in whole cells at 20 uM preincubated for 1 hr followed by fibronectin stimulation measured after 10 mins by Western blot analysis; type: cell-based
[6] = target: Growth factor receptor-bound protein 7 (Homo sapiens) (UniProt Q14451); assay: Inhibition of GRB7-FAK interaction in human SKBR3 cells assessed as FAK detection in whole cells at 20 uM preincubated for 1 hr followed by fibronectin stimulation measured after 10 mins by Western blot analysis; type: cell-based
[7] = target: Growth factor receptor-bound protein 2 (Homo sapiens) (UniProt P62993); assay: Binding affinity to human GST-tagged GRB2-SH2 domain expressed in Escherichia coli BL21(DE3) pLys after 60 to 80 secs in presence of 1 mM phosphate buffer by SPR assay
[8] = target: T1, Growth factor receptor-bound protein 10 (Homo sapiens) (UniProt Q13322); assay: Binding affinity to human GST-tagged GRB10-SH2 domain (471 to 532 residues) expressed in Escherichia coli BL21(DE3) pLys after 60 to 80 secs in presence of 1 mM phosphate buffer by SPR assay
T1 sequence (whole entry): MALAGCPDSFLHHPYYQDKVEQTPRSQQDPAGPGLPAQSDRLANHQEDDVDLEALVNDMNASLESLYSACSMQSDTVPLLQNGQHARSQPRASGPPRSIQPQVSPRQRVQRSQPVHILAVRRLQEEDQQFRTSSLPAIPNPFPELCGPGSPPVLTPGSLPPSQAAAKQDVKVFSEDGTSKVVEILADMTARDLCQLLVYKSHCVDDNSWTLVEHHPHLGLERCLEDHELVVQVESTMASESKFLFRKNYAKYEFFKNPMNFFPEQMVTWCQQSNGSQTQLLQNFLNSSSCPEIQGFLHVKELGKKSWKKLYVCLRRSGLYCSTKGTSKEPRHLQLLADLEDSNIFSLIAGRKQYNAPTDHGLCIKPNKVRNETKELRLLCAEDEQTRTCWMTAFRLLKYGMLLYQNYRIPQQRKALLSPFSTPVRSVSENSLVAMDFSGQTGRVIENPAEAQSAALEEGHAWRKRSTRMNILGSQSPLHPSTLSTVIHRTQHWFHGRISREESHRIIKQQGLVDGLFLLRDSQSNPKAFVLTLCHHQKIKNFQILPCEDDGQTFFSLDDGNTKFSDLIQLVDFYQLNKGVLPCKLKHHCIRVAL

[9] = target: Growth factor receptor-bound protein 2 (Homo sapiens) (UniProt P62993); assay: Binding affinity to human GST-tagged GRB2-SH2 domain expressed in Escherichia coli BL21(DE3) pLys after 60 to 80 secs in presence of 50 mM phosphate buffer by SPR assay
[10] = target: T1, Growth factor receptor-bound protein 10 (Homo sapiens); assay: Binding affinity to human GST-tagged GRB10-SH2 domain (471 to 532 residues) expressed in Escherichia coli BL21(DE3) pLys after 60 to 80 secs in presence of 50 mM phosphate buffer by SPR assay

Chain of Growth factor receptor-bound protein 7 (Homo sapiens) (Q14451 whole entry, the tested form may be a part): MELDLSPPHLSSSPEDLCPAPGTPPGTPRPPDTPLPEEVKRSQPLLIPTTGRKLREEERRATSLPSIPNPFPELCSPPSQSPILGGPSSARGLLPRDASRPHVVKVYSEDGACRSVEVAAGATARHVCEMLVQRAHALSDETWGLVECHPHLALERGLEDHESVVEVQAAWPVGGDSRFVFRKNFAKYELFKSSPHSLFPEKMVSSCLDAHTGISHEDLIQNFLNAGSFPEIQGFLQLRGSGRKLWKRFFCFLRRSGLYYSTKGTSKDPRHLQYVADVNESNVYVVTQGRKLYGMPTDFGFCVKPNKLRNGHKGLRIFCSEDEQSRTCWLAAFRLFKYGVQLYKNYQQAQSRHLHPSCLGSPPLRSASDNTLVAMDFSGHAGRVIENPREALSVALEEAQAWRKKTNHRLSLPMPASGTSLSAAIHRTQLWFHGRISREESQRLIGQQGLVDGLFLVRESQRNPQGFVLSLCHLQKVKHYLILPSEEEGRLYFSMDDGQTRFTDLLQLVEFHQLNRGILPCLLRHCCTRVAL

Row | inhibition [1] | inhibition [2] | inhibition [3] | inhibition [4] | inhibition [5] | inhibition [6] | Activity [7] | Activity [8] | Activity [9] | Activity [10] | SMILES
1 | Active | Active | Active | Active | Active | Active |  |  |  |  | CC[C@H](C)[C@H](NC(=O)[C@H](CCCCN)NC(=O)[C@@H](NC(=O)[C@H](CCC(N)=O)NC(=O)[C@H](CCCNC(=N)N)NC(=O)[C@@H]1CSCC(=O)N[C@H]2CCCCNC(=O)CC[C@H](NC(=O)[C@H](CC(N)=O)NC(=O)[C@H](CC(=O)O)NC(=O)[C@H](Cc3ccc(C(=O)O)cc3)NC(=O)CNC(=O)[C@H](CCC(=O)O)NC(=O)[C@H](Cc3ccccc3)NC2=O)C(=O)N1)[C@@H](C)CC)C(=O)N[C@@H](Cc1c[nH]c2ccccc12)C(=O)N[C@@H](Cc1ccccc1)C(=O)N[C@@H](CCC(N)=O)C(=O)N[C@@H](CC(N)=O)C(=O)N[C@@H](CCCNC(=N)N)C(=O)N[C@@H](CCCNC(=N)N)C(=O)N[C@@H](CCSC)C(=O)N[C@@H](CCCCN)C(=O)N[C@@H](Cc1c[nH]c2ccccc12)C(=O)N[C@@H](CCCCN)C(=O)N[C@@H](CCCCN)C(N)=O ({CH2CO}-KFEG[Phe(4-COOH)]DNECRQIKIWFQNRRMKWKK-NH2; lactam 1-8; thioether N-9)
2 | Active | Active | Active | Active | Active | Active |  |  |  |  | CC[C@H](C)[C@H](NC(=O)[C@H](CCCCN)NC(=O)[C@@H](NC(=O)[C@H](CCC(N)=O)NC(=O)[C@H](CCCNC(=N)N)NC(=O)[C@@H]1CSCC(=O)N[C@H]2CCCCNC(=O)CC[C@H](NC(=O)[C@H](CC(N)=O)NC(=O)[C@H](CC(=O)O)NC(=O)[C@H](Cc3ccc(O)cc3)NC(=O)CNC(=O)[C@H](CCC(=O)O)NC(=O)[C@H](Cc3ccccc3)NC2=O)C(=O)N1)[C@@H](C)CC)C(=O)N[C@@H](Cc1c[nH]c2ccccc12)C(=O)N[C@@H](Cc1ccccc1)C(=O)N[C@@H](CCC(N)=O)C(=O)N[C@@H](CC(N)=O)C(=O)N[C@@H](CCCNC(=N)N)C(=O)N[C@@H](CCCNC(=N)N)C(=O)N[C@@H](CCSC)C(=O)N[C@@H](CCCCN)C(=O)N[C@@H](Cc1c[nH]c2ccccc12)C(=O)N[C@@H](CCCCN)C(=O)N[C@@H](CCCCN)C(N)=O ({CH2CO}-KFEGYDNECRQIKIWFQNRRMKWKK-NH2; lactam 1-8; thioether N-9)
3 | Active | Active | Active | Active | Active | Active |  |  |  |  | CC[C@H](C)[C@H](NC(=O)[C@H](CCCCN)NC(=O)[C@@H](NC(=O)[C@H](CCC(N)=O)NC(=O)[C@H](CCCNC(=N)N)NC(=O)[C@@H]1CSCC(=O)N[C@@H](Cc2c[nH]c3ccccc23)C(=O)N[C@@H](Cc2ccccc2)C(=O)N[C@@H](CCC(=O)O)C(=O)NCC(=O)N[C@@H](Cc2ccc(C(=O)O)cc2)C(=O)N[C@@H](CC(=O)O)C(=O)N[C@@H](CC(N)=O)C(=O)N[C@@H]([C@@H](C)O)C(=O)N[C@@H](Cc2ccccc2)C(=O)N2CCC[C@H]2C(=O)N1)[C@@H](C)CC)C(=O)N[C@@H](Cc1c[nH]c2ccccc12)C(=O)N[C@@H](Cc1ccccc1)C(=O)N[C@@H](CCC(N)=O)C(=O)N[C@@H](CC(N)=O)C(=O)N[C@@H](CCCNC(=N)N)C(=O)N[C@@H](CCCNC(=N)N)C(=O)N[C@@H](CCSC)C(=O)N[C@@H](CCCCN)C(=O)N[C@@H](Cc1c[nH]c2ccccc12)C(=O)N[C@@H](CCCCN)C(=O)N[C@@H](CCCCN)C(N)=O
4 |  |  |  |  |  |  | inactive | inactive | inactive | inactive | NC(=O)C[C@@H]1NC(=O)[C@H](CC(=O)O)NC(=O)[C@H](Cc2ccc(O)cc2)NC(=O)CNC(=O)[C@H](CCC(=O)O)NC(=O)[C@H](Cc2ccccc2)NC(=O)[C@@H]2CCC(=O)NCCCC[C@H](NC1=O)C(=O)N[C@H](C(N)=O)CSCC(=O)N2 ({CH2CO}-EFEGYDNKC-NH2; lactam 1-8; thioether N-9)
5 |  |  |  |  |  |  | inactive | inactive | inactive | inactive | NC(=O)C[C@@H]1NC(=O)[C@H](CC(=O)O)NC(=O)[C@H](Cc2ccc(O)cc2)NC(=O)CNC(=O)[C@H](CCC(=O)O)NC(=O)[C@H](Cc2ccccc2)NC(=O)[C@@H]2CCCCNC(=O)CC[C@H](NC1=O)C(=O)N[C@H](C(N)=O)CSCC(=O)N2 ({CH2CO}-KFEGYDNEC-NH2; lactam 1-8; thioether N-9)
6 |  |  |  |  |  |  | inactive | inactive | inactive | inactive | NC(=O)C[C@@H]1NC(=O)[C@H](CC(=O)O)NC(=O)[C@H](Cc2ccc(O)cc2)NC(=O)CNC(=O)[C@H](CCC(=O)O)NC(=O)[C@H](Cc2ccccc2)NC(=O)[C@@H]2COCc3cn(nn3)CCC[C@H](NC1=O)C(=O)N[C@H](C(N)=O)CSCC(=O)N2
